Patent USRE38506E1, “Potent inducers of terminal differentiation and methods of use thereof” (Sloan-Kettering Institute for Cancer Research, priority 1991, dated 2004)

Key:
[1] = test system: MELC 745A-DS19 cells; assay: Induction of terminal differentiation of murine erythroleukemia cells (benzidine reactivity); type: cell-based; conditions: for Optimal Conc.: Table 1; for Benzidine Reactive Cells: at optimal concentration
Description: MELC 745A-DS19 cells and the variants of MELC derived from this cell line, namely, the vincristine-resistant MELC V3.17 and VCR.C(2)15 cell lines (26), and the dimethylsulfoxide-resistant cell line, DR10 (39), were maintained in alpha minimal essential medium containing 10% fetal calf serum (16). Cell cultures for all experiments were initiated with cells in logarithmic growth phase (day 2 cultured cells) at a density of 10^5 cells/ml. Inducer compounds were added in the final concentrations indicated below, dissolved in culture medium without fetal calf serum unless otherwise indicated. Cell density and benzidine reactively were determined as described (16).
(§1) Commitment to terminal differentiation, characterized by limited cell division (colony size<32 cells) and accumulation of hemoglobin (benzidine reactive colonies) was assayed by a colony cloning assay using 2% methylcellulose as described (25) (see Table 1 for results). HL-60 human leukemia cells, derived from peripheral blood leukocytes of a patient with acute promyelocytic leukemia (40). Induced differentiation of HL-60 cells assayed by determining the proportion of cells that developed the capacity to reduce nitroblue tetrazolium (NBT) (41) (see Table 2 for results).

[2] = test system: HL-60 human leukemia cells; assay: Induction of Differentiation of HL-60 (NBT reduction); type: cell-based; conditions: for Optimal Conc.: HL-60, Table 2; for NBT Positive: HL-60, at optimal concentration
Description: as §1

[3] = test system: MELC 745A-DS19 cells; conditions: without continuing drug exposure; cited from earlier work

SMILES | Optimal Conc. [1] [µM] | Benzidine Reactive Cells [1] [%] | Optimal Conc. [2] [µM] | NBT Positive [2] [%] | minimum duration of continuous exposure required to induce differentiation in a substantial portion (>20%) of the population [3]
[N-]=[N+]=Nc1ccc(NC(=O)CCCCCCC(=O)NO)cc1 [compound 31] | 2 | 47 | 2.5 | 7 | 
N#Cc1ccc(NC(=O)CCCCCCC(=O)O)cc1 [compound 7] |  | 52 | 20 | 21 | 
O=C(CCCCCCC(=O)Nc1cc(F)cc(F)c1)Nc1cc(F)cc(F)c1 [compound 61] | 125 | 31 |  |  | 
O=C(CCCCCCC(=O)Nc1cc(F)ccc1F)NO [compound 49] | 4 | 70 |  |  | 
CC(=O)NCCCCCCNC(C)=O [HMBA, N,N′-hexamethylene bisacetamide] |  |  |  |  | about 36 hours
COC(=O)CCCCCCC(=O)NO [compound 13] |  | 17 |  |  | 
O=C(CCCCCC(=O)Nc1ccccc1)NO [compound 2] | 20 | 84 | 7 | 22 | 
O=C(O)CCCCCCC(=O)Nc1ccc([N+](=O)[O-])cc1 [compound 8] |  | 32 |  |  | 
O=C(CCCCCCC(=O)Nc1ccccc1Cl)NO [compound 39] | 4 | 34 |  |  | 
O=C(CCCCCCC(=O)Nc1ccc(F)cc1F)Nc1ccc(F)cc1F [compound 59] | 500 | 54 |  |  | 
N#Cc1cccc(NC(=O)CCCCCCC(=O)O)c1 [compound 6] |  | 44 | 20 | 30 | 
O=C(CCCCCCC(=O)Nc1ccc([N+](=O)[O-])cc1)NO [compound 25] | 0.8 | 30 | 3 | 18 | 
O=C(CCCCCCC(=O)Nc1ccc(C(F)(F)F)cc1)NO [compound 27] | 5 | 47 |  |  | 
CC(C)(C)ONC(=O)CCCCCCC(=O)NO [compound 18] |  | 38 |  |  | 
O=C(CCCCCCC(=O)Nc1c(F)cccc1F)Nc1c(F)cccc1F [compound 60] | 100 | 21 |  |  | 
COc1ccccc1NC(=O)CCCCCCC(=O)NO [compound 51] | 8 | 36 |  |  | 
O=C(CCCCCCC(=O)Nc1cc(F)cc(F)c1)NO [compound 50] | 2 | 73 |  |  | 
N#Cc1ccc(NC(=O)CCCCCCC(=O)NO)cc1 [compound 21] | 7 | 70 | 2 | 6 | 
COC(=O)c1ccc(NC(=O)CCCCCCC(=O)NO)cc1 [compound 36] | 4 | 28 | 1 | 32 | 
N#Cc1ccccc1NC(=O)CCCCCCC(=O)NO [compound 23] | 16 | 65 |  |  | 
O=C(CCCCCCC(=O)Nc1c(F)c(F)c(F)c(F)c1F)Nc1c(F)c(F)c(F)c(F)c1F [compound 64] | 125 | 13 |  |  | 

SMILES | Optimal Conc. [1] [µM] | Benzidine Reactive Cells [1] [%] | Optimal Conc. [2] [µM] | NBT Positive [2] [%] | minimum duration of continuous exposure required to induce differentiation in a substantial portion (>20%) of the population [3]
O=C(CCCCCCCCC(=O)Nc1ccccc1)NO [compound 5] | 20 | 15 |  |  | 
O=C(CCCCCCC(=O)Nc1c(F)cc(F)cc1F)Nc1c(F)cc(F)cc1F [compound 63] | 125 | 35 |  |  | 
O=C(CCCCCCC(=O)Nc1c(F)ccc(F)c1F)NO [compound 43] | 31 | 53 | 2 | 20 | 
O=C(CCCCCCC(=O)Nc1c(F)c(F)c(F)c(F)c1F)NO [compound 46] | 31 | 53 |  |  | 
O=C(CCCCCCC(=O)N1CCCCC1)NO [compound 17] |  | 30 |  |  | 
O=C(CCCCCCC(=O)NCc1ccccc1)NO [compound 19] |  | 24 |  |  | 
CC(CCC(=O)NO)CCC(=O)NO [compound 68] |  | 56 |  |  | 
O=C(CCCCCCC(=O)Nc1ccccc1)NO [compound 3] |  | 70 | 1 | 21 | 
Nc1ccccc1NC(=O)CCCCCCC(=O)NO [compound 28] | 20 | 54 |  |  | 
N#CCCCCCC(=O)NO [compound 14] |  | 30 |  |  | 
N#Cc1cccc(NC(=O)CCCCCCC(=O)NO)c1 [compound 22] | 5 | 55 | 1.7 | 28 | 
CC(CCCCC(C)C(=O)N(C)C)C(=O)N(C)C (centres unmarked) [compound 67] |  | 90 |  |  | 
O=C(CCCCCCC(=O)NC1CCCCC1)NO [compound 16] |  | 35 |  |  | 
CNC(=O)c1ccc(NC(=O)CCCCCCC(=O)NO)cc1 [compound 37] | 30 | 16 |  |  | 
O=C(CCCCCCC(=O)Nc1cccc(C(F)(F)F)c1)NO [compound 26] | 30 | 30 | 6 | 27 | 
N#CCc1ccc(NC(=O)CCCCCCC(=O)NO)cc1 [compound 29] | 1 | 30 | 1 | 15 | 
O=C(CCCCCCC(=O)Nc1ccc(F)c(F)c1)NO [compound 47] | 4 | 61 |  |  | 
O=C(CCCCCCC(=O)Nc1ccc(C(=O)NO)cc1)Nc1ccc(C(=O)NO)cc1 [compound 57] | 8 | 10 |  |  | 
O=C(CCCCCCC(=O)Nc1ccc(Br)cc1)NO [compound 40] | 1.6 | 47 |  |  | 
O=C(CCCCCCC(=O)Nc1cc(F)c(F)c(F)c1)NO [compound 48] | 8 | 55 |  |  | 
O=C(CCCCC(=O)Nc1ccccc1)NO [compound 1] | 80 | 70 |  |  | 
